This is an account of results in patent publication US20250271361A1, “SUPERCONTINUUM INTRINSIC FLUORESCENCE IMAGING” (The Board of Trustees of the University of Illinois, priority 2024, published 2025).

Data set [1] relates to live BHK-21 cells. In words: time-lapse kinetic imaging assay (single-cell pharmacokinetic SOMI) of hamster kidney cells after transient exposure. The following applies: for cellular uptake by endocytosis via THG-visible nanovesicles: comparative kinetic assays of two mitochondrial uncouplers. The method, then:
(§1) In the above experiments (e.g., in the procedures used to generate the images described above), the following materials and methods were provided or performed. Adherent Syrian golden hamster kidney fibroblast cells BHK-21 (clone 13, ATCC CCL-10) were cultured in phenol red-free Eagle's Minimum Essential Medium (EMEM) supplemented with 10% FBS, 1% penicillin-streptomycin-amphotericin B (PSA), and 2.5 mM L-Glutamine at 37° C. under 5% CO2, and atmospheric O2 conditions. Before imaging, 1 mL of trypsinized cells was resuspended in 1 mL of 1×TrypLE™ Select Enzyme cell dissociation reagent (TFS, Cat #12563029). The cells were plated on poly-D-lysine coated 35-mm diameter glass-bottom imaging dishes and maintained inside a humidified incubator with 5% CO2 and 21% O2 conditions at 37° C. The incubation time varied between 1-6 hours while the culture media might be supplemented with specific drugs or labeling agents at […] concentrations. The cells were imaged within 10 min of being taken out of the incubator.
Large area or 3D SOMI was enabled by a motorized sample stage. Without moving the stage, time-lapse imaging of dynamic phenomenon or frame-averaged imaging of static samples were conducted in a constant field-of-view. Single-cell pharmacokinetics imaging was performed in a time-lapse SOMI of 200-frame period at the center of a 35-mm diameter glass-bottom imaging culture dish with 2 mL culture media of live BHK-21 cells. During the imaging near the 50-frame timepoint, 0.1 mL of preprepared concentrated solution of a drug (BAM15/FCCP) or labeling agent (AP3) was injected in ˜1 s by a mounted pipette into the center of the dish, attaining an ending/equilibrium concentration of […]. The fluorescence from AP3 in a segmented empty space among the cells was used to detect the transient concentration profile of injected drugs and labeling agents during the time-lapse imaging.

Data set [2] concerns hamster kidney fibroblast cells BHK-21. The data set can be described thus: SCIFI/SOMI endpoint (snapshot) imaging assay of in vitro hamster kidney cells treated with a drug or imaging agent. The class given is cell-based, Syrian golden hamster. The method, then: Next, the interaction between in vitro hamster kidney cells with a drug or imaging agent were evaluated.
Power-dependent “imaging” experiments were conducted on the prepared solutions and coverslip across the six colors by an excitation that would be standardized for biological imaging. […] For the 6-color SOMI images (1024×1024 pixels) collected from a biological sample, the raw intensity image of each color was converted into a photon-count image (unit: photon/pulse) using the established (calibrated) relation for that color at the same photomultiplier gain. Then, some (2-72) discernable single cells or cell clusters were manually segmented in the 6-color photon-count images. Finally, the SOMI intensity profiles of segmented single cells (or cell clusters) averaged over the corresponding pixels were obtained after a background subtraction. Specifically, the background of the culture medium in the empty space among the segmented cells was subtracted for 2D cell culture samples while the background with blocked illumination was subtracted for all 3D (tissue) samples.
In contrast to reductionism-based imaging, the lack of FLIM capability for general fluorescence imaging presented another challenge that may have contributed to the low popularity of comparative systems biology-based imaging strategies. Due to the high dynamic range of SOMI in gentle biological imaging, comparative photon counting of FLIM with low dynamic range (<0.2 photon/pulse, typically) cannot be used. To recover this capability, time-resolved photon counts were determined using computational photon counting, which provides single-photon accuracy for signals with high dynamic range. The output of three analog output photomultipliers for 4PAF, 3PAF, and 2PAF was optionally amplified with a high-speed transimpedance amplifier (C5594, Hamamatsu), and digitized at 2 GS/s with a high-speed digitizer (ATS9373, AlazarTech). Digitized values were saved, and photon-counting and lifetime information was computed in post-processing using custom MATLAB scripts (Mathworks). FLIM for the 2PAF and 3PAF colors were validated using NADH, FAD, and other standard dyes. To calibrate computational photon counting for 4PAF, Trp solutions from 0 to 50 mM were examined and a single-photon peak threshold was determined based on the peak height histogram to ensure a linear relationship between intensity and concentration over this range. After computational photon counting, mean fluorescence lifetime and phasor components g and s were determined by phasor analysis. For single-cell quantification, all fluorescence decays within a segmented cell were summed together, and one mean fluorescence lifetime was estimated from the total decay, along with one g and one s value.
as §1

Data set [3] deals with live BHK-21 cells. The note with it: statement of general knowledge, explained by the kinetic assay; cited from earlier work.
Where [4] appears, read: apoptotic hamster kidney cells, endpoint assay.

Take `CN[C@@H]1C[C@H]2O[C@@](C)([C@@H]1OC)n1c3ccccc3c3c4c(c5c6ccccc6n2c5c31)C(=O)NC4` [STS, staurosporine]: the “color through which cells respond” value in data set [1] (transient exposure, kinetic assay) was found to be 3PIF/NADH but not THG. Also, in data set [2] (setting [4]), the “LFI versus treatment-free control” value is listed as “retained a low LFI” and the “ORR (optical redox ratio) versus treatment-free control” value is recorded as “reduced ORR”. Moreover, the “LFR (LOP-to-FAD ratio)” value in data set [2] (in vitro STS-induced apoptosis confirmed by single-cell morphological change) is “increase in LFR”. The “apoptosis via modified cell morphology” value in data set [2] (in vitro hamster kidney cells, endpoint assay, different fields) is reported as “induced apoptosis”. Besides, the “3PIF (NADH) in 6-color profile” value in data set [2] (in vitro hamster kidney cells, label-free biomarker of apoptosis) is on record as “peaked”.
For the compound `Fc1ccccc1Nc1nc2nonc2nc1Nc1ccccc1F` [BAM15], the “toxicity in mitochondrial uncoupling, compared with FCCP” value in data set [3] is reported as “less toxic than FCCP”. Besides, in data set [1] (at a high concentration, transient exposure), the “cytotoxicity sensed in real-time by 4PIF” value is recorded as “confirmed”. For the same compound, the “rise in FAD* coinciding with sudden decrease in ETC” value in data set [1] (both BAM15 concentrations, kinetic assay) is on record as around 10 fold. Besides, the “induced FAD* in cytoplasm, BAM15 compared with FCCP” value in data set [1] (comparative kinetic assays) is “surprisingly larger”. Besides, the “cellular uptake by endocytosis via THG-visible nanovesicles” value in data set [1] is given as “might enable cellular uptake”. For the same compound, the “LFI (lipofuscin fluorescence independence extent)” value in data set [2] (in vitro hamster kidney cells, endpoint assay, control 32%) was determined as 44%.
Turning to `N#CC(C#N)=NNc1ccc(OC(F)(F)F)cc1` [FCCP], in data set [1], the “cellular uptake by endocytosis via THG-visible nanovesicles” value was “not”.
